In patent US20100099676A1 (SHIONOGI & CO., LTD., priority 2006, published 2010):

Tests used:
Test in all cases: Enzyme inhibiting activity of MMPs, fluorogenic peptide substrate
Format in all cases: biochemical
MMP-2 = target: T1, MMP-2 (Homo sapiens, UniProt P08253); conditions: substrate MOCAc-Pro-Leu-Gly-Leu-A2Pr(DNP)-Ala-Arg-NH2, fluorescent intensity
T1 construct: purchased Calbiochem (EMD/MERCK Biosciences)
T1 sequence (P08253 110-660): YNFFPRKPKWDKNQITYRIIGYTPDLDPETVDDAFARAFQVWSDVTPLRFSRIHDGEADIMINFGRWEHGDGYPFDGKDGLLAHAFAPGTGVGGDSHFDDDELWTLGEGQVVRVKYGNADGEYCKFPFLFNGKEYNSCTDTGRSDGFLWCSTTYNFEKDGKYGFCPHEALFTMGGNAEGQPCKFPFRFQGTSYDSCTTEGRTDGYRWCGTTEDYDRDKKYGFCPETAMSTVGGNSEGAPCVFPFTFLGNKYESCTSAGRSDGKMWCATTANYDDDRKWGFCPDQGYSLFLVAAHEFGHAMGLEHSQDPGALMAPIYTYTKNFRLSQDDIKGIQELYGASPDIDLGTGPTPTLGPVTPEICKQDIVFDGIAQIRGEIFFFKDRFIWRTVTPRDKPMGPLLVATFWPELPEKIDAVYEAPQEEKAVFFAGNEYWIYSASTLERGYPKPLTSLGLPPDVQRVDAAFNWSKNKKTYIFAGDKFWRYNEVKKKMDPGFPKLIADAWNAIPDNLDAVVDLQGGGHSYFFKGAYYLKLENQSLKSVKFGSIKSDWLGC
How it was run: (§1)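 Recombinant human enzymes with the fluorogenic substrate MOCAc-Pro-Leu-Gly-Leu-A2Pr(DNP)-Ala-Arg-NH2. Fluorescence was read for enzyme+substrate±inhibitor and substrate±inhibitor blanks.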

MMP-9 = target: T2, MMP-9 (Homo sapiens, UniProt P14780); conditions: substrate MOCAc-Pro-Leu-Gly-Leu-A2Pr(DNP)-Ala-Arg-NH2, fluorescent intensity
T2 construct: purchased Calbiochem (EMD/MERCK Biosciences)
How it was run: as §1

MMP-13 = target: T3, MMP-13 (Homo sapiens, UniProt P45452); conditions: APMA-activated proenzyme; substrate MOCAc-Pro-Leu-Gly-Leu-A2Pr(DNP)-Ala-Arg-NH2, fluorescent intensity; read-out: IC50 MMP-13
T3 construct: purchased Calbiochem (EMD/MERCK Biosciences)
How it was run: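 Pro-MMP-13 was activated with 1 mM APMA at 37° C for 2 h in 50 mM Tris-HCl pH 7.6, 0.3 M NaCl, 10 mM CaCl2, 0.005% Brij35. Activity was read by fluorescence using MOCAc-Pro-Leu-Gly-Leu-A2Pr(DNP)-Ala-Arg-NH2 substrate, with enzyme and inhibitor blank corrections. IC50 is the concentration giving 50% inhibition.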

T2 sequence (P14780 94-707): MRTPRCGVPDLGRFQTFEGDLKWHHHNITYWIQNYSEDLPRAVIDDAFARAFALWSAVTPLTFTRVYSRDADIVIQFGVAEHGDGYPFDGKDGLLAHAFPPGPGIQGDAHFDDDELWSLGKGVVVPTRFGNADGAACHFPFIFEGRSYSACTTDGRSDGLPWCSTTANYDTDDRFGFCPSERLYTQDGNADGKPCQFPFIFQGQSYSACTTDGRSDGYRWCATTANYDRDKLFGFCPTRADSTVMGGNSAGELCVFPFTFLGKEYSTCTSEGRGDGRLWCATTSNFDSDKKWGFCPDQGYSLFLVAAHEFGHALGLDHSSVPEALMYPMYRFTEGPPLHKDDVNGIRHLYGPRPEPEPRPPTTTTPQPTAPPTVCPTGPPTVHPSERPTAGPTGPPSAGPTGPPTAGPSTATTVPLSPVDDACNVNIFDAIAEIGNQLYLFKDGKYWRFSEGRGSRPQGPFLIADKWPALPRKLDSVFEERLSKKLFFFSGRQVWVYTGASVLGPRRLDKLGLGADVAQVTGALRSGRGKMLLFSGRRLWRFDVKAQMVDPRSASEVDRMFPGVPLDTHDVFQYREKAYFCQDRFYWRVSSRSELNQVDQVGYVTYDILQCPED

| SMILES | IC50 (MMP-2) [nM] | IC50 (MMP-9) [nM] | IC50 (MMP-13) [nM] |
| --- | --- | --- | --- |
| C[C@@H](NS(=O)(=O)N1CCN(c2ccc(C#Cc3ccc4c(c3)c(-c3ncco3)cn4C)cc2)CC1)C(=O)O [III-46, (R)-2-{4-[4-(1-methyl-3-oxazol-2-yl-1H-indol-5-ylethynyl)-phenyl]-piperazine-1-sulfonylamino}-proponic acid] | > 10000 | > 10000 | 18 |
| C[C@H](NS(=O)(=O)N1CCN(c2ccc(C#Cc3ccnc(C(=O)NCc4ccc(Cl)cc4)c3)cc2)CC1)C(=O)O [III-59, (S)-2-(4-{4-[2-(4-chrolobenzylcarbamoyl)-pyridin-4-ylethynyl]-phenyl}-piperazine-1-sulfonylamino)-proponic acid] | > 10000 | > 10000 | 6 |
| CCC[C@H](NS(=O)(=O)N1CCN(c2ccc(C#Cc3ccnc(C(=O)NCc4ccc(Cl)cc4)c3)cc2)CC1)C(=O)O [III-60, (S)-2-(4-{4-[2-(4-chrolobenzylcarbamoyl)-pyridin-4-ylethynyl]-phenyl}-piperazine-1-sulfonylamino)-pentanoic acid] | > 10000 | > 10000 | 6 |
| CC[C@H](NS(=O)(=O)N1CCN(c2ccc(C#Cc3ccnc(C(=O)NCc4ccc(Cl)cc4)c3)cc2)CC1)C(=O)O [III-68, (S)-2-(4-{4-[2-(4-chrolobenzylcarbamoyl)-pyridin-4-ylethynyl]-phenyl}-piperazine-1-sulfonylamino)-butanoic acid] | > 10000 | > 10000 | 5 |
| CC(C)[C@H](NS(=O)(=O)N1CCN(c2ccc(C#Cc3ccnc(C(=O)NCc4ccc(Cl)cc4)c3)cc2)CC1)C(=O)O [III-69, (S)-2-(4-{4-[2-(4-chrolobenzylcarbamoyl)-pyridin-4-ylethynyl]-phenyl}-piperazine-1-sulfonylamino)-3-methylbutanoic acid] | > 10000 | > 10000 | 7 |
| CC(C)[C@@H](NS(=O)(=O)N1CCN(c2ccc(C#Cc3ccc4[nH]c(=O)n(Cc5ccc(F)cc5)c(=O)c4c3)cc2)CC1)C(=O)O [III-72, (R)-2-(4-{4-[3-(4-fluorobenzyl)-2,4-dioxo-1,2,3,4-tetrahydroquinazolin-6-ylethynyl]-phenyl}-piperazine-1-sulfonylamino)-3-methylbutanoic acid] | > 10000 | > 10000 | 21 |
| COc1ccc(Cn2c(=O)[nH]c3ccc(C#Cc4ccc(N5CCN(S(=O)(=O)N[C@@H](C(=O)O)C(C)C)CC5)cc4)cc3c2=O)cc1 [III-73, (R)-2-(4-{4-[3-(4-methoxybenzyl)-2,4-dioxo-1,2,3,4-tetrahydroquinazolin-6-ylethynyl]-phenyl}-piperazine-1-sulfonylamino)-3-methylbutanoic acid] | > 10000 | > 10000 | 23 |
| COc1ccc(Cn2c(=O)c3cc(C#Cc4ccc(N5CCN(S(=O)(=O)N[C@@H](C(=O)O)C(C)C)CC5)cc4)ccc3n(C)c2=O)cc1 [III-80, (R)-2-(4-{4-[3-(4-methoxybenzyl)-1-methyl-2,4-dioxo-1,2,3,4-tetrahydroquinazolin-6-ylethynyl]-phenyl}-piperazine-1-sulfonylamino)-3-methylbutanoic acid] | > 10000 | > 10000 | 13 |
| CC(C)[C@@H](NS(=O)(=O)N1CCN(c2ccc(C#Cc3ccnc(C(=O)NCc4cccc(Cl)c4)c3)cc2)CC1)C(=O)O [III-81, (R)-2-(4-{4-[2-(3-chrolobenzylcarbamoyl)-pyridin-4-ylethynyl]-phenyl}-piperazine-1-sulfonylamino)-3-methylbutanoic acid] | 1000 to 10000 | > 10000 | 6 |
| CCC(=O)c1cccc2ccc(C#Cc3ccc(N4CCN(S(=O)(=O)N[C@H](C)C(=O)O)CC4)cc3)cc12 [III-86, (R)-2-{4-[4-(8-propionylnaphthalen-2-ylethynyl)-phenyl]-piperazine-1-sulfonylamino}-proponic acid] | 1000 to 10000 | > 10000 | 9 |
| CCC(=O)c1cccc2ccc(C#Cc3ccc(N4CCN(S(=O)(=O)N[C@@H](C(=O)O)C(C)C)CC4)cc3)cc12 [III-87, (R)-2-{4-[4-(8-propionylnaphthalen-2-ylethynyl)-phenyl]-piperazine-1-sulfonylamino}-3-methylbutanoic acid] | > 10000 | > 10000 | 25 |
| COc1ccc(C#Cc2ccc(N3CCN(S(=O)(=O)N[C@@H](C(=O)O)C(C)C)CC3)cc2)cc1C(=O)NCC#N [III-94, (R)-2-(4-{4-[3-(cyanomethylcarbamoyl)-4-methoxyphenylethynyl]-phenyl}-piperazine-1-sulfonylamino)-3-methylbutanoic acid] | 1000 to 10000 | 1000 to 10000 | 9 |
| CC(C)CCOc1ccc(C#Cc2ccc(N3CCN(S(=O)(=O)N[C@@H](C(=O)O)C(C)C)CC3)cc2)cc1C(=O)NCC#N [III-99, (R)-2-(4-{4-[3-(cyanomethylcarbamoyl)-4-(3-methylbutoxy)phenylethynyl]-phenyl}-piperazine-1-sulfonylamino)-3-methylbutanoic acid] | 1000 to 10000 | > 10000 | 25 |
| CC(C)Oc1ccc(C#Cc2ccc(N3CCN(S(=O)(=O)N[C@H](C)C(=O)O)CC3)cc2)cc1C(=O)NCc1ccccc1 [III-116, (R)-2-{4-[4-(3-benzylcarbamoyl-4-isopropoxyphenylethynyl)-phenyl]-piperazine-1-sulfonylamino}-proponic acid] | > 10000 | > 10000 | 23 |
| CC(C)Oc1ccc(C#Cc2ccc(N3CCN(S(=O)(=O)N[C@H](C)C(=O)O)CC3)cc2)cc1C(=O)NCc1cccc(Cl)c1 [III-118, (R)-2-(4-{4-[3-(3-chrolobenzylcarbamoyl)-4-isopropoxyphenylethynyl]-phenyl}-piperazine-1-sulfonylamino)-proponic acid] | > 10000 | > 10000 | 28 |
| CC(C)COc1ccc(C#Cc2ccc(N3CCN(S(=O)(=O)N[C@H](C)C(=O)O)CC3)cc2)cc1C(=O)NCc1ccccc1 [III-121, (R)-2-{4-[4-(3-benzylcarbamoyl-4-isobutoxyphenylethynyl)-phenyl]-piperazine-1-sulfonylamino}-proponic acid] | > 10000 | > 10000 | 25 |
| CCOCCOc1ccc(C#Cc2ccc(N3CCN(S(=O)(=O)N[C@@H](C(=O)O)C(C)C)CC3)cc2)cc1C(=O)NCC#N [III-135, (R)-2-(4-{4-[3-(cyanomethylcarbamoyl)-4-(2-ethoxyethoxy)-phenylethynyl]-phenyl}-piperazine-1-sulfonylamino)-3-methylbutanoic acid] | 1000 to 10000 | > 10000 | 9 |
| CC(C)OCCOc1ccc(C#Cc2ccc(N3CCN(S(=O)(=O)N[C@@H](C(=O)O)C(C)C)CC3)cc2)cc1C(=O)NCC#N [III-137, (R)-2-(4-{4-[3-(cyanomethylcarbamoyl)-4-(2-isopropoxyethoxy)-phenylethynyl]-phenyl}-piperazine-1-sulfonylamino)-3-methylbutanoic acid] | 1000 to 10000 | > 10000 | 17 |
| CC(C)[C@@H](NS(=O)(=O)N1CCN(c2ccc(C#Cc3ccc(OCCOC(C)(C)C)c(C(=O)NCC#N)c3)cc2)CC1)C(=O)O [III-138, (R)-2-(4-{4-[4-(2-tert-butoxyethoxy)-3-(cyanomethylcarbamoyl)-phenylethynyl]-phenyl}-piperazine-1-sulfonylamino)-3-methylbutanoic acid] | 1000 to 10000 | > 10000 | 18 |
| CC(C)[C@@H](NS(=O)(=O)N1CCN(c2ccc(C#Cc3ccnc(C(=O)NCc4ccc(Cl)cc4)c3)cc2)CC1)C(=O)O [III-144, (R)-2-(4-{4-[2-(4-chrolobenzylcarbamoyl)-pyridin-4-ylethynyl]-phenyl}-piperazine-1-sulfonylamino)-3-methylbutanoic acid] | 1000 to 10000 | > 10000 | 10 |
| COc1ccc(CNC(=O)c2cc(C#Cc3ccc(N4CCN(S(=O)(=O)N[C@@H](C(=O)O)C(C)C)CC4)cc3)ccn2)cc1 [III-150, (R)-2-(4-{4-[2-(4-methoxybenzylcarbamoyl)-pyridin-4-ylethynyl]-phenyl}-piperazine-1-sulfonylamino)-3-methylbutanoic acid] | 1000 to 10000 | > 10000 | 7 |
| CC(C)[C@@H](NS(=O)(=O)N1CCN(c2ccc(C#Cc3ccnc(C(=O)NCc4ccc(F)cc4)c3)cc2)CC1)C(=O)O [III-152, (R)-2-(4-{4-[2-(4-fluorobenzylcarbamoyl)-pyridin-4-ylethynyl]-phenyl}-piperazine-1-sulfonylamino)-3-methylbutanoic acid] | 1000 to 10000 | > 10000 | 8 |
